Data set [1] concerns human ovarian cancer xenograft OVCAR-3. In words: Anti-tumour activity in s.c. OVCAR-3 xenografts in nude mice. It counts as in vivo. The following applies: for Growth inhibition (%) (Day): weekly x 2; for Anti-tumour activity (in words): OVCAR-3, carboplatin at the MTD of 60 mg kg-1, amifostine given three times. Here is the method: (§1) British Joumal of Cancer (1997) 75(10), 1439-1446 ? […] The present study was carried out in well-established human ovarian cancer xenografts OVCAR-3, A2780 and FMa grown subcutaneously in the nude mouse. […] Its anti-tumour activity is assumed to result from the formation of platinum (Pt)-DNA adducts. The clinical use of carboplatin is limited by myelosuppression at a dose in the steep part of the dose-response curve. Therefore, much effort has been put into reducing the toxic side-effects to allow the administration of higher doses of carboplatin. Amifostine [Ethyol, WR-2721, S-2-(3-aminopropylamino)- ethylphosphorothioic acid], initially developed as a radioprotector, is approved for use as a protector against chemotherapy-induced toxicities in the USA and Europe (van der Vijgh and Peters, 1994). […] Such an approach is incorporated into clinical trials in which amifostine is given three times, just before and 2 and 4 h after carboplatin (Betticher et al, 1995; Vermorken et al, 1995). To date, clinical data are available for only a small number of patients. The Amifostine H2N - (CH2)3 - NH - (CH2)2 - S - P03H2 41 alkaline phosphatase WR-1 065 H2N - (CH2)3 - NH - (CH2)2 - S - H 4, oxidation Disulphides H2N - (CH2)3 - NH - (CH2)2 - S - S - R Figure 1 Structural formulas of amifostine, its active metabolite WR-1 065 and the disulphides [with WR-1 065 itself or with endogenous thiols (RSH)] […] However, the influence of multiple doses of amifostine on the anti-tumour activity of carboplatin was not studied. In the present experiments we investigated the influence of multiple doses of amifostine on the efficacy of carboplatin in tumour-bearing nude mice. We also investigated the influence of one and three doses of amifostine on the pharmacokinetics of carboplatin and the formation of Pt-DNA adducts in order to inter- pret the efficacy of carboplatin in the presence of amifostine. Furthermore, we determined the influence of a single dose and multiple doses of amifostine on the body temperature in nude mice.

Data set [2] relates to human ovarian cancer xenograft A2780. In words: Anti-tumour activity in s.c. A2780 xenografts in nude mice. To be noted: for Growth inhibition (%) (Day): Table 1, carboplatin 60 mg kg-1 i.v. and/or amifostine 3 x 200 mg kg-1 i.p., weekly x 2; for Anti-tumour activity (in words): A2780, carboplatin at the MTD of 60 mg kg-1, amifostine given three times. It is filed as in vivo. Here is the method:
as §1

Data set [3] concerns human ovarian cancer xenograft FMa. In words: Anti-tumour activity in s.c. FMa xenografts in nude mice. It counts as in vivo. To be noted: for Anti-tumour activity (in words): carboplatin at the MTD of 60 mg kg-1, amifostine given three times; for Growth inhibition (%) (Day): weekly x 2. Here is the method:
as §1

Data set [4] is described as follows: Toxicity (weight loss, toxic deaths) in xenograft-bearing nude mice. It counts as in vivo, female athymic nude mice. The following applies: weekly x 2. Here is the method:
as §1

Data set [5] in a line: Pharmacokinetics of total platinum in OVCAR-3-bearing nude mice (flameless AAS). It counts as in vivo. To be noted: 0.5-24 h, carboplatin 60 mg kg-1 i.v. alone or + single dose amifostine 200 mg kg-1 i.p. Here is the method:
as §1

In the next data set the test system is DNA. In words: Pt-DNA adduct levels in tissues of OVCAR-3-bearing nude mice (competitive ELISA). It is filed as in vivo. To be noted: carboplatin 60 mg kg-1 alone or plus one dose of amifostine. Here is the method:
as §1
(ELISA stands for enzyme-linked immunosorbent assay.)

Data set [6] is described as follows: Body temperature (intrarectal) in non-tumour-bearing nude mice. It is filed as in vivo. The following applies: carboplatin 60 mg kg-1 alone; in the 24 h following injection. Here is the method:
British Joumal of Cancer (1997) 75(10), 1439-1446 ? […] The present study was carried out in well-established human ovarian cancer xenografts OVCAR-3, A2780 and FMa grown subcutaneously in the nude mouse. […] Its anti-tumour activity is assumed to result from the formation of platinum (Pt)-DNA adducts. The clinical use of carboplatin is limited by myelosuppression at a dose in the steep part of the dose-response curve. Therefore, much effort has been put into reducing the toxic side-effects to allow the administration of higher doses of carboplatin. Amifostine [Ethyol, WR-2721, S-2-(3-aminopropylamino)- ethylphosphorothioic acid], initially developed as a radioprotector, is approved for use as a protector against chemotherapy-induced toxicities in the USA and Europe (van der Vijgh and Peters, 1994). […] Such an approach is incorporated into clinical trials in which amifostine is given three times, just before and 2 and 4 h after carboplatin (Betticher et al, 1995; Vermorken et al, 1995). To date, clinical data are available for only a small number of patients. […] Furthermore, we determined the influence of a single dose and multiple doses of amifostine on the body temperature in nude mice.

Details of data set [7]: method as in Treskes et al, 1994. The following applies: given on days 0 and 7; allowing 10% weight loss within 2 weeks after the first injection; ref Treskes et al, 1994; cited from earlier work.
The mark [8] stands for this setting: OVCAR-3, day 28, Table 1, carboplatin 60 mg kg-1 i.v. and/or amifostine 3 x 200 mg kg-1 i.p.
The mark [9] stands for this setting: OVCAR-3, day 35, Table 1, carboplatin 60 mg kg-1 i.v. and/or amifostine 3 x 200 mg kg-1 i.p.
Setting [10] is: day 29, Table 1, carboplatin 60 mg kg-1 i.v. and/or amifostine 3 x 200 mg kg-1 i.p.
[11] abbreviates: day 36, Table 1, carboplatin 60 mg kg-1 i.v. and/or amifostine 3 x 200 mg kg-1 i.p.
Where [12] appears, read: A2780-bearing mice, Table 1, carboplatin 60 mg kg-1 i.v. and/or amifostine 3 x 200 mg kg-1 i.p.
[13] abbreviates: FMa-bearing mice, Table 1, carboplatin 60 mg kg-1 i.v. and/or amifostine 3 x 200 mg kg-1 i.p.
Setting [14] is: OVCAR-3-bearing mice, Table 1, carboplatin 60 mg kg-1 i.v. and/or amifostine 3 x 200 mg kg-1 i.p.

As for `N.N.O=C([O-])C1(C(=O)[O-])CCC1.[Pt+2]` [carboplatin, cis-diammine( 1,1 -cyclobutanedicarboxylato)plat- inum(II)], the “Growth inhibition (%) (Day)” value came out at 88.5% in data set [1] (OVCAR-3, day 20, Table 2, carboplatin 60 mg kg-1 i.v. alone or + amifostine 1 x 200 mg kg-1 i.p.); 92.4% in data set [1] (OVCAR-3, day 27, Table 2, carboplatin 60 mg kg-1 i.v. alone or + amifostine 1 x 200 mg kg-1 i.p.); 93.2% in data set [1] (setting [8]); 89.0% in data set [1] (setting [9]); 28.8% in data set [2] (A2780, day 11); 14.0% in data set [2] (A2780, day 14). The “Growth inhibition (%) (Day)” value is listed as 79.2% in data set [3] (day 21, Table 2, carboplatin 60 mg kg-1 i.v. alone or + amifostine 1 x 200 mg kg-1 i.p.); 76.0% in data set [3] (day 28, Table 2, carboplatin 60 mg kg-1 i.v. alone or + amifostine 1 x 200 mg kg-1 i.p.); 90.3% in data set [3] (setting [10]); 89.3% in data set [3] (setting [11]). Besides, the “Anti-tumour activity (in words)” value is given as “active” in data set [1], “no significant influence” in data set [2] and “active” in data set [3]. The Toxic deaths in data set [4] (setting [12]) was 0/5; in data set [4] (setting [13]), 0/6; in data set [4] (FMa-bearing mice, Table 2, carboplatin 60 mg kg-1 i.v. alone or + amifostine 1 x 200 mg kg-1 i.p.), 0/6; in data set [4] (setting [14]), 0/5; in data set [4] (OVCAR-3-bearing mice, Table 2, carboplatin 60 mg kg-1 i.v. alone or + amifostine 1 x 200 mg kg-1 i.p.), 0/6. Moreover, in data set [5], the “AUC of total platinum in OVCAR-3 tumour tissue” value is given as 146.8 nmol g(-1) x h. Besides, the “AUC of total platinum in kidney” value in data set [5] is 368.3 nmol g(-1) x h. Besides, the “AUC of total platinum in liver” value in data set [5] is listed as 236.4 nmol g(-1) x h. In data set [5], the “AUC of total platinum in plasma ultrafiltrate” value worked out at 18.2 microM x h. In the data set with DNA, the “Ratio AUC Pt-DNA adducts/AUC total platinum, kidney” value worked out at 0.51. In the data set on DNA, the “Ratio AUC Pt-DNA adducts/AUC total platinum, liver” value is given as 0.23. The “Ratio AUC Pt-DNA adducts/AUC total platinum, tumour tissue” value in the data set with DNA worked out at 0.56. Further, the “Body temperature (not decreased)” value in data set [6] is on record as 37 0C. The “Maximum tolerated dose (MTD) of carboplatin” value in data set [7] is given as 60 mg kg-'.
Consider `NCCCNCCSP(=O)(O)O` [amifostine, S-2-(3-aminopropylamino)-ethylphosphorothioic acid], for which the “Growth inhibition (%) (Day)” value was 0.0% in data set [1] (setting [8]); 0.0% in data set [1] (setting [9]); 31.1% in data set [2] (A2780, day 11); 17.4% in data set [2] (A2780, day 14); 20.3% in data set [3] (setting [10]); 21.5% in data set [3] (setting [11]). Besides, the “Anti-tumour activity (in words)” value in data set [1], in data set [2] and in data set [3] was “did not have any anti-tumour activity” in each case. For the same compound, the Toxic deaths in data set [4] (setting [12]) is given as 2/6; in data set [4] (setting [13]) it was 0/6; in data set [4] (setting [14]) it was 1/6.
